Results reported in US20250381243A1, “HETEROCYCLES AND USES THEREOF” (Kumquat Biosciences Inc., priority 2022, published 2025).

Test system: A549 cells
Assay: Cell proliferation assay (CellTiter-Glo), cells with K-Ras G12S mutation
Format: cell-based
Details: Homo sapiens, ≤500 nM, read-out: Inhibition of A549 Cells (IC50)
Method in brief: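 A549 (K-Ras G12S) cells in RPMI-1640 with 10% heat-inactivated FBS, plated in standard or ultra-low-attachment 384-well format, treated next day with a dilution series (e.g., 10-point, 3-fold). Viability read by CellTiter-Glo luminescence about 6 days later; IC50 from four-parameter fit.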

Row | SMILES | IC50 [nM]
1 | CC(C)C1N(C(=O)n2cnc(Cl)n2)CC12CCCN(c1nc(OC[C@@]34CCCN3C[C@H](F)C4)nc3c(F)c(-c4ccc(F)c5sc(N)c(C#N)c45)c(Cl)cc13)C2 (stereo partly drawn) [Compound 175, 2-amino-4-(6-chloro-4-(2-(3-chloro-1H-1,2,4-triazole-1-carbonyl)-1-isopropyl-2,6-diazaspiro[3.5]nonan-6-yl)-8-fluoro-2-(((2R,7aS)-2-fluorotetrahydro-1H-pyrrolizin-7a(5H)-yl)methoxy)quinazolin-7-yl)-7-fluorobenzo[b]thiophene-3-carbonitrile] | ≤ 500
2 | CCN(C(=O)n1cncn1)C1CCN(c2nc(OC[C@@]34CCCN3C[C@H](F)C4)nc3c(F)c(-c4ccc(F)c5sc(N)c(C#N)c45)c(Cl)cc23)C1 (stereo partly drawn) [Compound 177, N-(1-(7-(2-amino-3-cyano-7-fluorobenzo[b]thiophen-4-yl)-6-chloro-8-fluoro-2-(((2R,7aS)-2-fluorotetrahydro-1H-pyrrolizin-7a(5H)-yl)methoxy)quinazolin-4-yl)pyrrolidin-3-yl)-N-ethyl-1H-1,2,4-triazole-1-carboxamide] | ≤ 500
3 | CC1([C@H]2N(C(=O)n3cnc(Cl)n3)C[C@]23CCCN(c2nc(OC[C@@]45CCCN4C[C@H](F)C5)nc4c(F)c(-c5ccc(F)c6sc(N)c(C#N)c56)c(Cl)cc24)C3)CC1 [Compound 179, 2-amino-4-(6-chloro-4-((1R,4R)-2-(3-chloro-1H-1,2,4-triazole-1-carbonyl)-1-(1-methylcyclopropyl)-2,6-diazaspiro[3.5]nonan-6-yl)-8-fluoro-2-(((2R,7aS)-2-fluorotetrahydro-1H-pyrrolizin-7a(5H)-yl)methoxy)quinazolin-7-yl)-7-fluorobenzo[b]thiophene-3-carbonitrile] | ≤ 500
4 | CC(C)N(C(=O)n1cncn1)[C@H]1CCN(c2nc(OC[C@@]34CCCN3C[C@H](F)C4)nc3c(F)c(-c4ccc(F)c5sc(N)c(C#N)c45)c(Cl)cc23)C1 [Compound 180, N-((3S)-1-(7-(2-amino-3-cyano-7-fluorobenzo[b]thiophen-4-yl)-6-chloro-8-fluoro-2-(((2R,7aS)-2-fluorotetrahydro-1H-pyrrolizin-7a(5H)-yl)methoxy)quinazolin-4-yl)pyrrolidin-3-yl)-N-isopropyl-1H-1,2,4-triazole-1-carboxamide] | ≤ 500
5 | CC1N(C(=O)n2cncn2)CC12CCCN(c1nc(OC[C@@]34CCCN3C[C@H](F)C4)nc3c(F)c(-c4ccc(F)c5sc(N)c(C#N)c45)c(Cl)cc13)C2 (stereo partly drawn) [Compound 182, 2-amino-4-(6-chloro-8-fluoro-2-(((2R,7aS)-2-fluorotetrahydro-1H-pyrrolizin-7a(5H)-yl)methoxy)-4-(1-methyl-2-(1H-1,2,4-triazole-1-carbonyl)-2,6-diazaspiro[3.5]nonan-6-yl)quinazolin-7-yl)-7-fluorobenzo[b]thiophene-3-carbonitrile] | ≤ 500
6 | CC(C)[C@H]1N(C(=O)n2cnc(F)n2)C[C@]12CCCN(c1nc(OC[C@@]34CCCN3C[C@H](F)C4)nc3c(F)c(-c4ccc(F)c5sc(N)c(C#N)c45)c(Cl)cc13)C2 [Compound 184, 2-amino-4-(6-chloro-8-fluoro-4-((1R,4R)-2-(3-fluoro-1H-1,2,4-triazole-1-carbonyl)-1-isopropyl-2,6-diazaspiro[3.5]nonan-6-yl)-2-(((2R,7aS)-2-fluorotetrahydro-1H-pyrrolizin-7a(5H)-yl)methoxy)quinazolin-7-yl)-7-fluorobenzo[b]thiophene-3-carbonitrile] | ≤ 500
7 | C[C@H]1CC[C@]2(CN(C(=O)n3cnc(F)n3)[C@@H]2C2(C)CC2)CN1c1nc(OC[C@@]23CCCN2C[C@H](F)C3)nc2c(F)c(-c3ccc(F)c4sc(N)c(C#N)c34)c(Cl)cc12 [Compound 185, 2-amino-4-(6-chloro-8-fluoro-4-((1R,4R,7S)-2-(3-fluoro-1H-1,2,4-triazole-1-carbonyl)-7-methyl-1-(1-methylcyclopropyl)-2,6-diazaspiro[3.5]nonan-6-yl)-2-(((2R,7aS)-2-fluorotetrahydro-1H-pyrrolizin-7a(5H)-yl)methoxy)quinazolin-7-yl)-7-fluorobenzo[b]thiophene-3-carbonitrile] | ≤ 500
8 | CN(C[C@@H]1CN(C(=O)n2cnc(F)n2)[C@@H]1C1(C(F)F)CC1)c1nc(OC[C@@]23CCCN2C[C@H](F)C3)nc2c(F)c(-c3ccc(F)c4sc(N)c(C#N)c34)c(Cl)cc12 [Compound 186, 2-amino-4-(6-chloro-4-((((2S,3R)-2-(1-(difluoromethyl)cyclopropyl)-1-(3-fluoro-1H-1,2,4-triazole-1-carbonyl)azetidin-3-yl)methyl)(methyl)amino)-8-fluoro-2-(((2R,7aS)-2-fluorotetrahydro-1H-pyrrolizin-7a(5H)-yl)methoxy)quinazolin-7-yl)-7-fluorobenzo[b]thiophene-3-carbonitrile] | ≤ 500
9 | CC(C)[C@H]1N(C(=O)n2cnc(Cl)n2)C[C@]12CCCN(c1nc(OC[C@@]34CCCN3C[C@H](F)C4)nc3c(F)c(-c4ccc(F)c5sc(N)c(C#N)c45)c(Cl)cc13)C2 [Compound 190, 2-amino-4-(6-chloro-4-((1R,4R)-2-(3-chloro-1H-1,2,4-triazole-1-carbonyl)-1-isopropyl-2,6-diazaspiro[3.5]nonan-6-yl)-8-fluoro-2-(((2R,7aS)-2-fluorotetrahydro-1H-pyrrolizin-7a(5H)-yl)methoxy)quinazolin-7-yl)-7-fluorobenzo[b]thiophene-3-carbonitrile] | ≤ 500
10 | CC(C)[C@H]1N(C(=O)n2cnc(Cl)n2)C[C@]12CC[C@H](C)N(c1nc(OC[C@@]34CCCN3C[C@H](F)C4)nc3c(F)c(-c4ccc(F)c5sc(N)c(C#N)c45)c(Cl)cc13)C2 [Compound 192, 2-amino-4-(6-chloro-4-((1R,4R,7S)-2-(3-chloro-1H-1,2,4-triazole-1-carbonyl)-1-isopropyl-7-methyl-2,6-diazaspiro[3.5]nonan-6-yl)-8-fluoro-2-(((2R,7aS)-2-fluorotetrahydro-1H-pyrrolizin-7a(5H)-yl)methoxy)quinazolin-7-yl)-7-fluorobenzo[b]thiophene-3-carbonitrile] | ≤ 500
11 | C[C@H]1CC[C@]2(CN(C(=O)n3cnc(F)n3)[C@@H]2C2CCC2)CN1c1nc(OC[C@@]23CCCN2C[C@H](F)C3)nc2c(F)c(-c3ccc(F)c4sc(N)c(C#N)c34)c(Cl)cc12 [Compound 199, 2-amino-4-(6-chloro-4-((1R,4R,7S)-1-cyclobutyl-2-(3-fluoro-1H-1,2,4-triazole-1-carbonyl)-7-methyl-2,6-diazaspiro[3.5]nonan-6-yl)-8-fluoro-2-(((2R,7aS)-2-fluorotetrahydro-1H-pyrrolizin-7a(5H)-yl)methoxy)quinazolin-7-yl)-7-fluorobenzo[b]thiophene-3-carbonitrile] | ≤ 500
12 | CC(C)[C@H]1N(C(=O)n2cnc(F)n2)C[C@@]12CN(c1nc(OC[C@@]34CCCN3C[C@H](F)C4)nc3c(F)c(-c4ccc(F)c5sc(N)c(C#N)c45)c(Cl)cc13)CCO2 [Compound 204, 2-amino-4-(6-chloro-8-fluoro-4-((1R,4S)-2-(3-fluoro-1H-1,2,4-triazole-1-carbonyl)-1-isopropyl-5-oxa-2,8-diazaspiro[3.5]nonan-8-yl)-2-(((2R,7aS)-2-fluorotetrahydro-1H-pyrrolizin-7a(5H)-yl)methoxy)quinazolin-7-yl)-7-fluorobenzo[b]thiophene-3-carbonitrile] | ≤ 500
13 | CC1CN(c2nc(OC[C@@]34CCCN3C[C@H](F)C4)nc3c(F)c(-c4ccc(F)c5sc(N)c(C#N)c45)c(Cl)cc23)CC1N(C)C(=O)n1cncn1 (stereo partly drawn) [Compound 206, N-(1-(7-(2-amino-3-cyano-7-fluorobenzo[b]thiophen-4-yl)-6-chloro-8-fluoro-2-(((2R,7aS)-2-fluorotetrahydro-1H-pyrrolizin-7a(5H)-yl)methoxy)quinazolin-4-yl)-4-methylpyrrolidin-3-yl)-N-methyl-1H-1,2,4 triazole-1-carboxamide] | ≤ 500
14 | CC(C)[C@@H]1[C@H](CN(C)c2nc(OC[C@@]34CCCN3C[C@H](F)C4)nc3c(F)c(-c4ccc(F)c5sc(N)c(C#N)c45)c(Cl)cc23)CN1C(=O)n1cnc(Cl)n1 [Compound 208, 2-amino-4-(6-chloro-4-((((2R,3R)-1-(3-chloro-1H-1,2,4-triazole-1-carbonyl)-2-isopropylazetidin-3-yl)methyl)(methyl)amino)-8-fluoro-2-(((2R,7aS)-2-fluorotetrahydro-1H-pyrrolizin-7a(5H)-yl)methoxy)quinazolin-7-yl)-7-fluorobenzo[b]thiophene-3-carbonitrile] | ≤ 500
15 | CCN(C(=O)n1cncn1)C1CCCN(c2nc(OC[C@@]34CCCN3C[C@H](F)C4)nc3c(F)c(-c4ccc(F)c5sc(N)c(C#N)c45)c(Cl)cc23)C1 (stereo partly drawn) [Compound 209, N-(1-(7-(2-amino-3-cyano-7-fluorobenzo[b]thiophen-4-yl)-6-chloro-8-fluoro-2-(((2R,7aS)-2-fluorotetrahydro-1H-pyrrolizin-7a(5H)-yl)methoxy)quinazolin-4-yl)piperidin-3-yl)-N-ethyl-1H-1,2,4-triazole-1-carboxamide] | ≤ 500
16 | CC(C)[C@H]1N(C(=O)n2cnc(Cl)n2)C[C@@]1(C)CN(C)c1nc(OC[C@@]23CCCN2C[C@H](F)C3)nc2c(F)c(-c3ccc(F)c4sc(N)c(C#N)c34)c(Cl)cc12 [Compound 210, 2-amino-4-(6-chloro-4-((((2R,3R)-1-(3-chloro-1H-1,2,4-triazole-1-carbonyl)-2-isopropyl-3-methylazetidin-3-yl)methyl)(methyl)amino)-8-fluoro-2-(((2R,7aS)-2-fluorotetrahydro-1H-pyrrolizin-7a(5H)-yl)methoxy)quinazolin-7-yl)-7-fluorobenzo[b]thiophene-3-carbonitrile] | ≤ 500
